Source: patent US4179433A, “Angiotensin II antagonist peptides containing an alpha-aminooxyacid in the position-1” (Richter Gedeon Vegyeszeti Gyar Rt., priority 1977, dated 1979)

Tested on: narcoticized male cats
Experiment: Decrease in arterial blood pressure after intravenous administration, under i.v. infusion of angiotensin II
Assay type: in vivo, cat
Settings: single dose, angiotensin II infusion 0.5 μg/kg/min, average of 6 experiments
Protocol: The antagonistic activity of the compounds having the formula I was tested on narcoticized male cats. The blood pressure was measured on the cervical artery. The tests were performed by introducing a Hypertension (CIBA) infusion into a lateral femoral vane at a speed of 0.5 μg/kg/min. When the increase in blood pressure was stabilized, the aqueous, physiological or carrier-containing solutions of the test compounds and Saralasin were administered in a single dose, intravenously or subcutaneously, and the decrease in blood pressure was measured. In the Table I the decrease in the arterial blood pressure under the influence of an intravenous administration of the test compounds is illustrated. For comparison Saralasin is used. The data set forth in the Table 1 were obtained by calculating the average of the results of 6 experiments. The margins of error indicate the scatter of the main value.

CNCC(=O)N[C@@H](CCCN=C(N)N)C(=O)N[C@H](C(=O)N[C@@H](Cc1ccc(O)cc1)C(=O)N[C@H](C(=O)N[C@@H](Cc1cnc[nH]1)C(=O)N1CCC[C@H]1C(=O)N[C@@H](C)C(=O)O)C(C)C)C(C)C [Saralasin]
Decrease in blood pressure (mmHg) after administration of 10 μg/kg i.v. doses: -41±2.5 mmHg
